# Results taken from the NIST ThermoML archive (doi:10.1016/j.jct.2015.11.012).
# Numbers after ± are expanded uncertainties.
# Assays:
# [1] = 100 kPa, Liquid; for viscosity: Capillary tube (Ostwald / Ubbelohde) method; for speed of sound: Frequency=2 MHz, Linear variable-path acoustic interferometer; for mass density: Vibrating tube method
# [2] = xn = mol fraction of the nth substance listed; settings: 100 kPa, Liquid; for viscosity: Capillary tube (Ostwald / Ubbelohde) method; for speed of sound: Frequency=2 MHz, Linear variable-path acoustic interferometer; for mass density: Vibrating tube method
SMILES,viscosity ([1]; 303.15 K),speed of sound ([1]; 303.15 K),mass density ([1]; 303.15 K),viscosity ([1]; 308.15 K),speed of sound ([1]; 308.15 K),mass density ([1]; 308.15 K),viscosity ([1]; 313.15 K),speed of sound ([1]; 313.15 K),mass density ([1]; 313.15 K),viscosity ([1]; 318.15 K),speed of sound ([1]; 318.15 K),mass density ([1]; 318.15 K),further results
OCCCl [1-chloro-2-hydroxyethane],2.578 ± 1 mPa·s,1342.8 ± 8.2 m/s,1192.12 ± 4 kg/m3,2.259 ± 1 mPa·s,1328.5 ± 8.1 m/s,1186.63 ± 4 kg/m3,1.852 mPa·s,1315.5 ± 8 m/s,1178.05 ± 4 kg/m3,1.564 mPa·s,1301.2 ± 7.9 m/s,1170.87 ± 4 kg/m3,–
NCCO [2-aminoethan-1-ol],14.42 ± 1 mPa·s,1703.1 ± 10 m/s,1008.72 ± 4 kg/m3,11.71 ± 1 mPa·s,1685.8 ± 10 m/s,1004.65 ± 4 kg/m3,9.564 ± 1 mPa·s,1671.2 ± 10 m/s,1000.74 ± 4 kg/m3,7.558 ± 1 mPa·s,1653.2 ± 10 m/s,996.04 ± 4 kg/m3,–
NCCO [2-aminoethan-1-ol] + Nc1cccc(Cl)c1,–,–,–,–,–,–,–,–,–,–,–,–,"viscosity ([2]; 303.15 K, x2 = 0): 14.42 ± 1 mPa·s; speed of sound ([2]; 303.15 K, x2 = 0): 1703.1 ± 10 m/s; mass density ([2]; 303.15 K, x2 = 0): 1008.72 ± 4 kg/m3; viscosity ([2]; 308.15 K, x2 = 0): 11.71 ± 1 mPa·s; speed of sound ([2]; 308.15 K, x2 = 0): 1685.8 ± 10 m/s; mass density ([2]; 308.15 K, x2 = 0): 1004.65 ± 4 kg/m3; viscosity ([2]; 313.15 K, x2 = 0): 9.564 ± 1 mPa·s; speed of sound ([2]; 313.15 K, x2 = 0): 1671.2 ± 10 m/s; mass density ([2]; 313.15 K, x2 = 0): 1000.74 ± 4 kg/m3; viscosity ([2]; 318.15 K, x2 = 0): 7.558 ± 1 mPa·s; speed of sound ([2]; 318.15 K, x2 = 0): 1653.2 ± 10 m/s; mass density ([2]; 318.15 K, x2 = 0): 996.04 ± 4 kg/m3"
OCCc1ccccc1 [2-phenylethanol],9.045 ± 1 mPa·s,1508.4 ± 9.2 m/s,1012.34 ± 4 kg/m3,7.193 ± 1 mPa·s,1490.8 ± 9.1 m/s,1008.63 ± 4 kg/m3,6.085 ± 1 mPa·s,1470.6 ± 9 m/s,1004.84 ± 4 kg/m3,4.984 ± 1 mPa·s,1456.4 ± 8.9 m/s,1000.94 ± 4 kg/m3,–
OCCc1ccccc1 [2-phenylethanol] + Nc1cccc(Cl)c1,–,–,–,–,–,–,–,–,–,–,–,–,"viscosity ([2]; 303.15 K, x2 = 0): 9.045 ± 1 mPa·s; speed of sound ([2]; 303.15 K, x2 = 0): 1508.4 ± 9.2 m/s; mass density ([2]; 303.15 K, x2 = 0): 1012.34 ± 4 kg/m3; viscosity ([2]; 308.15 K, x2 = 0): 7.193 ± 1 mPa·s; speed of sound ([2]; 308.15 K, x2 = 0): 1490.8 ± 9.1 m/s; mass density ([2]; 308.15 K, x2 = 0): 1008.63 ± 4 kg/m3; viscosity ([2]; 313.15 K, x2 = 0): 6.085 ± 1 mPa·s; speed of sound ([2]; 313.15 K, x2 = 0): 1470.6 ± 9 m/s; mass density ([2]; 313.15 K, x2 = 0): 1004.84 ± 4 kg/m3; viscosity ([2]; 318.15 K, x2 = 0): 4.984 ± 1 mPa·s; speed of sound ([2]; 318.15 K, x2 = 0): 1456.4 ± 8.9 m/s; mass density ([2]; 318.15 K, x2 = 0): 1000.94 ± 4 kg/m3"
Nc1cccc(Cl)c1 [3-chlorobenzenamine],4.255 ± 1 mPa·s,1517.5 ± 9.3 m/s,1205.32 ± 4 kg/m3,3.842 ± 1 mPa·s,1501.2 ± 9.2 m/s,1200.75 ± 4 kg/m3,3.43 ± 1 mPa·s,1480.3 ± 9 m/s,1196.02 ± 4 kg/m3,3.022 ± 1 mPa·s,1464.8 ± 8.9 m/s,1191.25 ± 4 kg/m3,–
Nc1cccc(Cl)c1 [3-chlorobenzenamine] + OCCCl,–,–,–,–,–,–,–,–,–,–,–,–,"viscosity ([2]; 303.15 K, x1 = 1): 4.255 ± 1 mPa·s; speed of sound ([2]; 303.15 K, x1 = 1): 1517.5 ± 9.3 m/s; mass density ([2]; 303.15 K, x1 = 1): 1205.32 ± 4 kg/m3; viscosity ([2]; 308.15 K, x1 = 1): 3.842 ± 1 mPa·s; speed of sound ([2]; 308.15 K, x1 = 1): 1501.2 ± 9.2 m/s; mass density ([2]; 308.15 K, x1 = 1): 1200.75 ± 4 kg/m3; viscosity ([2]; 313.15 K, x1 = 1): 3.43 ± 1 mPa·s; speed of sound ([2]; 313.15 K, x1 = 1): 1480.3 ± 9 m/s; mass density ([2]; 313.15 K, x1 = 1): 1196.02 ± 4 kg/m3; viscosity ([2]; 318.15 K, x1 = 1): 3.022 ± 1 mPa·s; speed of sound ([2]; 318.15 K, x1 = 1): 1464.8 ± 8.9 m/s; mass density ([2]; 318.15 K, x1 = 1): 1191.25 ± 4 kg/m3"
